Data: patent US6355799B1, “Substituted benzene compounds, process for their preparation, and herbicidal and defoliant compositions containing them” (ISK Americas Incorporated, priority 1997, dated 2002)

Experiments:
Type in all cases: in vivo
[1] = test system: redroot pigweed (Amaranthus retroflexus, AMARE); test: Pre-emerge test, greenhouse herbicide activity screening; settings: rated 14 days after application, 0 = no damage, 100 = complete death
Method in brief: (§1)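 Plants grown in 10 cm pots of sandy loam mix received acetone-dissolved compounds through a moving flat-fan nozzle. Doses ranged from 15 to 1000 g ai/ha. Pre-emerge pots were seeded one day earlier, post-emerge pots 8–21 days earlier. Fourteen days on, each pot was graded 0–100 for damage.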

[2] = test system: velvetleaf (Abutilon theophrasti, ABUTH); test: as above; settings: rated 14 days after application, 0 = no damage, 100 = complete death
Method in brief: as §1

[3] = test system: johnsongrass (Sorghum halepense, SORHA); test: as above; settings: rated 14 days after application, 0 = no damage, 100 = complete death
Method in brief: as §1

[4] = test system: barnyardgrass (Echinochloa crus-galli, ECHCG); test: as above; settings: rated 14 days after application, 0 = no damage, 100 = complete death
Method in brief: as §1

[5] = test system: green foxtail (Setaria viridis, SETVI); test: as above; settings: rated 14 days after application, 0 = no damage, 100 = complete death
Method in brief: as §1

[6] = test system: large crabgrass (Digitaria sanguinalis, DIGSA); test: as above; settings: rated 14 days after application, 0 = no damage, 100 = complete death
Method in brief: as §1

[7] = test system: lambsquarters (Chenopodium album, CHEAL); test: as above; settings: rated 14 days after application, 0 = no damage, 100 = complete death
Method in brief: as §1

[8] = test system: ivyleaf morningglory (Ipomoea hederacea, IPOHE); test: as above; settings: rated 14 days after application, 0 = no damage, 100 = complete death
Method in brief: as §1

[9] = test system: sicklepod (Cassia obtusifolia, CASOB); test: as above; settings: rated 14 days after application, 0 = no damage, 100 = complete death
Method in brief: as §1

[10] = test system: common ragweed (Ambrosia artemisizfolia L., AMBEL); test: as above; settings: rated 14 days after application, 0 = no damage, 100 = complete death
Method in brief: as §1

[11] = test system: velvetleaf (Abutilon theophrasti, ABUTH); test: Post-emerge test, greenhouse herbicide activity screening; settings: post-emerge, 14 days after application, rating scale 0-100
Method in brief: (§2)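 Compounds in acetone were track-sprayed at 187 l/ha, 15–1000 g ai/ha, onto sandy loam pots. Pre-emerge seeds were sown one day before spraying, with surface watering afterwards. Post-emerge plants were at the 2–3 leaf stage and sprayed with 0.25% v/v non-ionic surfactant. Injury was rated 0–100 at 14 days.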

[12] = test system: johnsongrass (Sorghum halepense, SORHA); test: as above; settings: post-emerge, 14 days after application, rating scale 0-100
Method in brief: as §2

[13] = test system: barnyardgrass (Echinochloa crus-galli, ECHCG); test: as above; settings: post-emerge, 14 days after application, rating scale 0-100
Method in brief: as §2

[14] = test system: redroot pigweed (Amaranthus retroflexus, AMARE); test: as above; settings: post-emerge, 14 days after application, rating scale 0-100
Method in brief: as §2

[15] = test system: large crabgrass (Digitaria sanguinalis, DIGSA); test: as above; settings: post-emerge, 14 days after application, rating scale 0-100
Method in brief: as §2

[16] = test system: lambsquarters (Chenopodium album, CHEAL); test: as above; settings: post-emerge, 14 days after application, rating scale 0-100
Method in brief: as §2

[17] = test system: ivyleaf morningglory (Ipomoea hederacea, IPOHE); test: as above; settings: post-emerge, 14 days after application, rating scale 0-100
Method in brief: as §2

[18] = test system: sicklepod (Cassia obtusifolia, CASOB); test: as above; settings: post-emerge, 14 days after application, rating scale 0-100
Method in brief: as §2

[19] = test system: common ragweed (Ambrosia artemisizfolia L., AMBEL); test: as above; settings: post-emerge, 14 days after application, rating scale 0-100
Method in brief: as §2

[20] = test system: upland rice (Oryza sp., var. Tebonnet, RICE); test: Pre-emerge test, crop safety; settings: rated 14 days after application, 0 = no damage, 100 = complete death
Method in brief: (§3)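 Compounds in acetone were track-sprayed at 15-1000 g ai/ha (187 l/ha) on sandy loam pots: pre-emerge one day after seeding, post-emerge at 2-3 leaf stage with 0.25% v/v non-ionic surfactant. Phytotoxicity was rated 14 days later on a 0 (no damage) to 100 (complete death) scale.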

[21] = test system: field corn (Zea mays L., var. Dekalb 535, CORN); test: Pre-emerge test, crop safety; settings: rated 14 days after application, 0 = no damage, 100 = complete death
Method in brief: as §3

[22] = test system: upland rice (Oryza sp., var. Tebonnet, RICE); test: Post-emerge test, crop safety; settings: post-emerge, 14 days after application, rating scale 0-100
Method in brief: (§4)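 Each test used a mechanized track sprayer delivering 187 l/ha of acetone solution at 15–1000 g ai/ha. Post-emerge foliage at 2–3 leaves was treated with added 0.25% v/v non-ionic surfactant and bottom-watered only. Injury was assessed on day 14, where 100 means total kill.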

[23] = test system: field corn (Zea mays L., var. Dekalb 535, CORN); test: Post-emerge test, crop safety; settings: post-emerge, 14 days after application, rating scale 0-100
Method in brief: as §4

COc1c(Cl)cc(F)c(-n2c(=O)cc(C(F)(F)F)n(C)c2=O)c1N(C(=O)c1ccc(C(F)(F)F)cc1)C(=O)c1ccc(C(F)(F)F)cc1 [2-34]
Pre-emerge Herbicidal Activity, phytotoxicity rating (0-100), AMARE ([1]; 63 g ai/ha): 100 | Pre-emerge Herbicidal Activity, phytotoxicity rating (0-100), AMARE ([1]; 250 g ai/ha): 100 | Pre-emerge Herbicidal Activity, phytotoxicity rating (0-100), ABUTH ([2]; 63 g ai/ha): 100 | Pre-emerge Herbicidal Activity, phytotoxicity rating (0-100), ABUTH ([2]; 250 g ai/ha): 100 | Pre-emerge Herbicidal Activity, phytotoxicity rating (0-100), SORHA ([3]; 63 g ai/ha): 20 | Pre-emerge Herbicidal Activity, phytotoxicity rating (0-100), SORHA ([3]; 250 g ai/ha): 85 | Pre-emerge Herbicidal Activity, phytotoxicity rating (0-100), ECHCG ([4]; 63 g ai/ha): 70 | Pre-emerge Herbicidal Activity, phytotoxicity rating (0-100), ECHCG ([4]; 250 g ai/ha): 99 | Pre-emerge Herbicidal Activity, phytotoxicity rating (0-100), SETVI ([5]; 63 g ai/ha): 95 | Pre-emerge Herbicidal Activity, phytotoxicity rating (0-100), SETVI ([5]; 250 g ai/ha): 100 | Pre-emerge Herbicidal Activity, phytotoxicity rating (0-100), DIGSA ([6]; 63 g ai/ha): 70 | Pre-emerge Herbicidal Activity, phytotoxicity rating (0-100), DIGSA ([6]; 250 g ai/ha): 100 | Pre-emerge Herbicidal Activity, phytotoxicity rating (0-100), CHEAL ([7]; 63 g ai/ha): 100 | Pre-emerge Herbicidal Activity, phytotoxicity rating (0-100), CHEAL ([7]; 250 g ai/ha): 100 | Pre-emerge Herbicidal Activity, phytotoxicity rating (0-100), IPOHE ([8]; 63 g ai/ha): 100 | Pre-emerge Herbicidal Activity, phytotoxicity rating (0-100), IPOHE ([8]; 250 g ai/ha): 100 | Pre-emerge Herbicidal Activity, phytotoxicity rating (0-100), CASOB ([9]; 63 g ai/ha): 100 | Pre-emerge Herbicidal Activity, phytotoxicity rating (0-100), CASOB ([9]; 250 g ai/ha): 100 | Pre-emerge Herbicidal Activity, phytotoxicity rating (0-100), AMBEL ([10]; 63 g ai/ha): 100 | Pre-emerge Herbicidal Activity, phytotoxicity rating (0-100), AMBEL ([10]; 250 g ai/ha): 100 | phytotoxicity rating ABUTH ([11]; 63 g ai/ha): 100 | phytotoxicity rating ABUTH ([11]; 250 g ai/ha): 100 | phytotoxicity rating SORHA ([12]; 63 g ai/ha): 40 | phytotoxicity rating SORHA ([12]; 250 g ai/ha): 80 | phytotoxicity rating ECHCG ([13]; 63 g ai/ha): 0 | phytotoxicity rating ECHCG ([13]; 250 g ai/ha): 30 | phytotoxicity rating AMARE ([14]; 63 g ai/ha): 95 | phytotoxicity rating AMARE ([14]; 250 g ai/ha): 95 | phytotoxicity rating DIGSA ([15]; 63 g ai/ha): 10 | phytotoxicity rating DIGSA ([15]; 250 g ai/ha): 30 | phytotoxicity rating CHEAL ([16]; 63 g ai/ha): 85 | phytotoxicity rating CHEAL ([16]; 250 g ai/ha): 90 | phytotoxicity rating IPOHE ([17]; 63 g ai/ha): 75 | phytotoxicity rating IPOHE ([17]; 250 g ai/ha): 95 | phytotoxicity rating CASOB ([18]; 63 g ai/ha): 100 | phytotoxicity rating CASOB ([18]; 250 g ai/ha): 100 | phytotoxicity rating AMBEL ([19]; 63 g ai/ha): 70 | phytotoxicity rating AMBEL ([19]; 250 g ai/ha): 85 | Pre-emerge phytotoxicity rating (0-100), crop damage, RICE ([20]; 63 g ai/ha): 40 | Pre-emerge phytotoxicity rating (0-100), crop damage, RICE ([20]; 250 g ai/ha): 90 | Pre-emerge phytotoxicity rating (0-100), crop damage, CORN ([21]; 63 g ai/ha): 25 | Pre-emerge phytotoxicity rating (0-100), crop damage, CORN ([21]; 250 g ai/ha): 90 | phytotoxicity rating RICE ([22]; 63 g ai/ha): 65 | phytotoxicity rating RICE ([22]; 250 g ai/ha): 85 | phytotoxicity rating CORN ([23]; 63 g ai/ha): 60 | phytotoxicity rating CORN ([23]; 250 g ai/ha): 90

COc1c(Cl)cc(F)c(-n2c(=O)cc(C(F)(F)F)n(C)c2=O)c1NC(=O)c1ccc(-c2ccccc2)cc1 [2-37]
Pre-emerge Herbicidal Activity, phytotoxicity rating (0-100), AMARE ([1]; 63 g ai/ha): 0 | Pre-emerge Herbicidal Activity, phytotoxicity rating (0-100), AMARE ([1]; 250 g ai/ha): 30 | Pre-emerge Herbicidal Activity, phytotoxicity rating (0-100), ABUTH ([2]; 63 g ai/ha): 0 | Pre-emerge Herbicidal Activity, phytotoxicity rating (0-100), ABUTH ([2]; 250 g ai/ha): 30 | Pre-emerge Herbicidal Activity, phytotoxicity rating (0-100), SORHA ([3]; 63 g ai/ha): 0 | Pre-emerge Herbicidal Activity, phytotoxicity rating (0-100), SORHA ([3]; 250 g ai/ha): 0 | Pre-emerge Herbicidal Activity, phytotoxicity rating (0-100), ECHCG ([4]; 63 g ai/ha): 0 | Pre-emerge Herbicidal Activity, phytotoxicity rating (0-100), ECHCG ([4]; 250 g ai/ha): 0 | Pre-emerge Herbicidal Activity, phytotoxicity rating (0-100), SETVI ([5]; 63 g ai/ha): 0 | Pre-emerge Herbicidal Activity, phytotoxicity rating (0-100), SETVI ([5]; 250 g ai/ha): 0 | Pre-emerge Herbicidal Activity, phytotoxicity rating (0-100), DIGSA ([6]; 63 g ai/ha): 0 | Pre-emerge Herbicidal Activity, phytotoxicity rating (0-100), DIGSA ([6]; 250 g ai/ha): 0 | Pre-emerge Herbicidal Activity, phytotoxicity rating (0-100), CHEAL ([7]; 63 g ai/ha): 0 | Pre-emerge Herbicidal Activity, phytotoxicity rating (0-100), CHEAL ([7]; 250 g ai/ha): 50 | Pre-emerge Herbicidal Activity, phytotoxicity rating (0-100), IPOHE ([8]; 63 g ai/ha): 0 | Pre-emerge Herbicidal Activity, phytotoxicity rating (0-100), IPOHE ([8]; 250 g ai/ha): 0 | Pre-emerge Herbicidal Activity, phytotoxicity rating (0-100), CASOB ([9]; 63 g ai/ha): 0 | Pre-emerge Herbicidal Activity, phytotoxicity rating (0-100), CASOB ([9]; 250 g ai/ha): 0 | Pre-emerge Herbicidal Activity, phytotoxicity rating (0-100), AMBEL ([10]; 63 g ai/ha): 0 | Pre-emerge Herbicidal Activity, phytotoxicity rating (0-100), AMBEL ([10]; 250 g ai/ha): 0 | phytotoxicity rating ABUTH ([11]; 63 g ai/ha): 0 | phytotoxicity rating ABUTH ([11]; 250 g ai/ha): 30 | phytotoxicity rating SORHA ([12]; 63 g ai/ha): 0 | phytotoxicity rating SORHA ([12]; 250 g ai/ha): 0 | phytotoxicity rating ECHCG ([13]; 63 g ai/ha): 0 | phytotoxicity rating ECHCG ([13]; 250 g ai/ha): 0 | phytotoxicity rating AMARE ([14]; 63 g ai/ha): 0 | phytotoxicity rating AMARE ([14]; 250 g ai/ha): 10 | phytotoxicity rating DIGSA ([15]; 63 g ai/ha): 0 | phytotoxicity rating DIGSA ([15]; 250 g ai/ha): 0 | phytotoxicity rating CHEAL ([16]; 63 g ai/ha): 0 | phytotoxicity rating CHEAL ([16]; 250 g ai/ha): 20 | phytotoxicity rating IPOHE ([17]; 63 g ai/ha): 0 | phytotoxicity rating IPOHE ([17]; 250 g ai/ha): 0 | phytotoxicity rating CASOB ([18]; 63 g ai/ha): 0 | phytotoxicity rating CASOB ([18]; 250 g ai/ha): 0 | phytotoxicity rating AMBEL ([19]; 63 g ai/ha): 0 | phytotoxicity rating AMBEL ([19]; 250 g ai/ha): 0 | Pre-emerge phytotoxicity rating (0-100), crop damage, RICE ([20]; 63 g ai/ha): 0 | Pre-emerge phytotoxicity rating (0-100), crop damage, RICE ([20]; 250 g ai/ha): 0 | Pre-emerge phytotoxicity rating (0-100), crop damage, CORN ([21]; 63 g ai/ha): 0 | Pre-emerge phytotoxicity rating (0-100), crop damage, CORN ([21]; 250 g ai/ha): 0 | phytotoxicity rating RICE ([22]; 63 g ai/ha): 0 | phytotoxicity rating RICE ([22]; 250 g ai/ha): 0 | phytotoxicity rating CORN ([23]; 63 g ai/ha): 0 | phytotoxicity rating CORN ([23]; 250 g ai/ha): 0
